Data reported in patent US6787569B1, “Therapeutic guanidines” (Cambridge NeuroScience, Inc., priority 1994, dated 2004).
pIC50: −log10 of the molar value. Counter-ions that a name gives are not always drawn. Like-named read-outs stand apart in the source and are kept apart here.

Legend:
[1] = test system: veratridine-induced 3H-glutamate release from brain nerve terminals (voltage-activated presynaptic Na channels); experiment: Inhibition of veratridine-induced 3H-glutamate release, rapid superfusion of synaptosomes; format: biochemical, rat; conditions: 50 μM veratridine-induced release, rat brain synaptosomes; for % Inhibition of ^3H-Glu Rel @ 1 μM (*veratridine-induced glutamate release assay): 1 μM compound; for % Inhibition of ^3H-Glu Rel @ 3 μM (*veratridine-induced glutamate release assay): 3 μM compound
[2] = test system: depolarization-induced 3H-glutamate release from brain nerve terminals; experiment: Inhibition of 3H-glutamate release, high [K+] depolarization, rapid superfusion of synaptosomes; format: biochemical; conditions: rat brain synaptosomes; for % Inhibition of ^3H-Glu Rel @ 3 μM: 3 μM compound; for % Inhibition of ^3H-Glu Rel @ 1 μM: 1 μM compound
[3] = target: Type II neuronal voltage-activated sodium channels (Rattus norvegicus, UniProt P04775); experiment: cell-based
Sequence of Type II neuronal voltage-activated sodium channels (P04775 whole entry): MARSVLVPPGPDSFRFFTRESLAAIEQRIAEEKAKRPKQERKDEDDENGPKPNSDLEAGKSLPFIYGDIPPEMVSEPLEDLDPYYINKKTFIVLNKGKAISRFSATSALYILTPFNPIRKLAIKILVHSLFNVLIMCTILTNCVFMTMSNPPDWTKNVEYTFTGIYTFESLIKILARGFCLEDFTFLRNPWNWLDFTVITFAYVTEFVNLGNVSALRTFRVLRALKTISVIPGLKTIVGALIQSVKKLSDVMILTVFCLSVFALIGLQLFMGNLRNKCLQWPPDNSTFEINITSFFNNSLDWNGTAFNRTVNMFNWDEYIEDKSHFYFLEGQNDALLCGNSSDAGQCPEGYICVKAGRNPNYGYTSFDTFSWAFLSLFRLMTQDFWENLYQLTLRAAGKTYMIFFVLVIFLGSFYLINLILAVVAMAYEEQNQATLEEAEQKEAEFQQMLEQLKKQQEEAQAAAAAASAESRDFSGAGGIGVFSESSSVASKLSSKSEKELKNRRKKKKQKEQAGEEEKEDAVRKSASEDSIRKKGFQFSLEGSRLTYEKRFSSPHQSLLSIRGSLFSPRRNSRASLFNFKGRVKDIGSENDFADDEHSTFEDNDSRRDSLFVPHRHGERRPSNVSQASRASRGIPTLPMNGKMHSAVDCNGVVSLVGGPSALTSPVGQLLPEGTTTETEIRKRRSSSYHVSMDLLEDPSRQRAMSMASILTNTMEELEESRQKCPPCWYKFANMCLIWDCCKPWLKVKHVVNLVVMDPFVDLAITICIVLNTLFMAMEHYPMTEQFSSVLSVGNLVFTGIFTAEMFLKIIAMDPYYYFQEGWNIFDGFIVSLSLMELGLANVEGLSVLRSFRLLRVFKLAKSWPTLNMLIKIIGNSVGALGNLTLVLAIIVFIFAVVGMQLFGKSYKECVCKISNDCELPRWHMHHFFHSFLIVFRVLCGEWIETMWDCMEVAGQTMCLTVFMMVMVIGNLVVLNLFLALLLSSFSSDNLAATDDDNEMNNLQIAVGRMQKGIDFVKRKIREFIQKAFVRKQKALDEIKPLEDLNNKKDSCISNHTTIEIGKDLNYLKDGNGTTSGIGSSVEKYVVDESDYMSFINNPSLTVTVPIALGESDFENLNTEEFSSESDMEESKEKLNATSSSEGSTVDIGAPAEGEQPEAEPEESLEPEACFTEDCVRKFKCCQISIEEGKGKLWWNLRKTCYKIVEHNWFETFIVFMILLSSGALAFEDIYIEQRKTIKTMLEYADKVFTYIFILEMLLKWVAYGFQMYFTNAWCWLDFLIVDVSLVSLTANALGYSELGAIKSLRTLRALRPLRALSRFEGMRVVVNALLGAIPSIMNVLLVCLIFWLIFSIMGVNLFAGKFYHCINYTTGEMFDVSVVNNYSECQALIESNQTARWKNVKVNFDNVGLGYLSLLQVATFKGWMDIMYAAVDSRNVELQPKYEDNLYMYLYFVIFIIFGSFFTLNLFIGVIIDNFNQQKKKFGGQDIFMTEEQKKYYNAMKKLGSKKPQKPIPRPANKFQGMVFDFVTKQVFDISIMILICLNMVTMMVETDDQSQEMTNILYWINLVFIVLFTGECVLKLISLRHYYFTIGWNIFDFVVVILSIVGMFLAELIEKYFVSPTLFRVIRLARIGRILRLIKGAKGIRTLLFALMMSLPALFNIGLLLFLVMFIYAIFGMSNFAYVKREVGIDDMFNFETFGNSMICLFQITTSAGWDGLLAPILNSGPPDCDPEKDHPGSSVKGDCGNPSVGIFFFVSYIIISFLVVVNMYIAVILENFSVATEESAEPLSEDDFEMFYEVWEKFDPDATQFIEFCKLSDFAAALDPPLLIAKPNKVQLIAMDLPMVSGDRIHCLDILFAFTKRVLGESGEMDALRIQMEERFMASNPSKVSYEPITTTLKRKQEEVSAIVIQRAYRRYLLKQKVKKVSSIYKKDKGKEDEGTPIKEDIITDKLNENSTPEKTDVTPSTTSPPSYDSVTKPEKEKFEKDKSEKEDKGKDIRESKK

[4] = test system: L-type Ca channels; experiment: Inhibition of 45Ca uptake through L-type (dihydropyridine-sensitive) calcium channels in GH4C1 pituitary cells; format: cell-based
Procedure: Compounds of the invention representative of each of the major classes of agents claimed herein were tested to determine their ability to inhibit voltage-activated, dihydropyridine-sensitive L-type calcium channels in clonal GH4C1 pituitary cells. Said voltage-activated L-type calcium channels are found in cardiac muscle, vascular smooth muscle, and the cardiac Purkije cell conduction system. They are the sites of action of the major classes of Ca antagonists employed to treat hypertension, angina, cardiac arrhythmias, and related disorders. L-type Ca channels are also the sites of action of certain neuroprotective dihydropyridine Ca antagonists such as nimodipine.
The uptake of ^45Ca into GH4C1 cells was performed by an adaptation of the method of Tan, K. et al. (J. Biol. Chem., 259:418-426 (1984)). The principle of the method involves activating ion permeation through synaptosomal calcium channels by high K^+-induced depolarization of the synaptosomal preparation. The uptake of ^45Ca measured by this procedure is mediated by presynaptic L-type calcium channels, and is sensitive to dihydropyridine, phenylalkylamine, and benzothiazipine Ca antagonists at therapeutically relevant concentrations [Tashjian et al., ibid.]. The adaptation of the aforementioned method involves growing GH4C1 cells in 96-well culture plates, and is designed to provide a rapid and quantitative determination of the potency of various compounds in inhibiting ^45Ca uptake through L-type Ca channels.
GH4 cells, stored in liquid nitrogen, are suspended in 15 ml growth medium (Ham's F-10 medium plus 15% heat-inactivated horse serum and 2.5% heat-inactivated fetal bovine serum). The cells are centrifuged, resuspended, and then added to T-75 flasks containing 12-15 mls Growth Medium, and incubated at 37° C. for approximately 1 week. The cells are them removed from the T75 flask after dissociation from the walls of the flask by treatment for 5 minutes at 37° C. with 1 mg/ml Viocase. The Viocase is decanted, and the cells are resuspended in ˜200 ml of Growth Medium. The cells are then aliquoted (200 μl/well) into each well of several 96 well plates. The cells are then grown under the aforementioned conditions for 3-4 weeks, with replacement of Growth Medium occurring twice per week. Cells are fed growth medium 24 hours before they are employed for ^45Ca uptake determinations.
At the time of the assay, media Is aspirated from each 96-well plate using a manifold designed to allow 50 μL of liquid to remain in each well. Each plate is washed and aspirated twice with a low K^+ buffer solution “LKHBBS” (in mM 5 KCl, 145 NaCl, 10 Hepes, 1 MgCl2, […], 10 glucose, pH 7.4), 200 μl/well. Each plate is incubated for 10 minutes at 37° C., and aspirated as above. To each well of each plate, 50 μl of HBBS containing the drug to be tested in twice the final concentration is added. The plates are incubated for 10 minutes at room temperature. To each well of each plate, 50 μl of either of two solutions are added:
(a) LKHBBS containing 1 μCi of carrier-free ^45Ca, or
(b) HKHBBS (a high K^+ buffer containing 150 mM KCl and no NaCl, but otherwise identical to LKHBBS).
Each plate is then incubated for 5 minutes at room temperature, aspirated as above, and quenched with 200 μl/well of Quench Buffer (Ca-free LKHBBS containing 10 mM Tris-EGTA). Each plate is aspirated and rinsed with Quench Buffer a second time, then carefully aspirated to dryness. To each well of each plate 100 μl of High Safe II scintillation fluid is added. The plates are sealed, shaken, and subjected to scintillation spectrophotometry on a Microbeta 96-well Scintillation Counter (Wallac, Gaithersburg, Md., USA).
Net depolarization-induced ^45Ca uptake was determined for each concentration of each compound tested, as the difference between ^45Ca uptake in HKBBS and LK buffers. Results were plotted as % inhibition of depolarization-induced ^45Ca uptake vs. [compound] for each compound tested.

[5] = test system: audiogenic seizures in DBA/2 mice; experiment: In vivo anticonvulsant activity in the DBA/2 mouse model (audiogenic seizures); conditions: 30 minutes prior to auditory stimulus
Procedure: Compounds were tested for their effectiveness in preventing seizures in DBA/2 mice which have a unique sensitivity to auditory stimulation. Exposure to loud high-frequency sounds can trigger seizure activity in these animals. This sensitivity develops from postnatal day 12 and peaks around day 21 and slowly diminishes as the animals mature. The unusual response to auditory stimulation in this strain of mouse is believed to be due to a combination of early myelination (causing an unusually low excitatory threshold) and delayed development of inhibitory mechanisms. Glutamate, the predominant excitatory neurotransmitter, has been implicated in this response. Blockade of glutamate receptors of the NMDA and AMPA subtypes, prevents audiogenic seizures in these mice. Compounds that block the release of glutamate should similarly act to prevent seizure activity, and may be therapeutic in other neurologic disorders such as stroke, which also involves glutamate-mediated damage.
Mice were injected intraperitoneally with the compound specified in Table V below or with vehicle control, 30 minutes prior to being placed in a bell jar and turning on the auditory stimulus (12 KHz sine wave at 110-120 db). Administered doses are specified in Table V as milligram of compound per kilogram bodyweight of mouse. The auditory stimulus was left on for 60 seconds and mice reactions were timed and recorded.
Percentage inhibition was determined with reference to vehicle controls.

[6] = veratridine (100 μM)-induced, tetrodotoxin-sensitive uptake, CHO cells expressing rat brain Type II Na channels, read-out: IC50, block of ^14C guanidinium uptake
[7] = high K+ depolarization-induced 45Ca uptake, read-out: IC50, block of ^45Ca uptake

With N=C(N=Cc1cccc2ccccc12)Nc1ccc2c3c(cccc13)CC2 [Example 10, N-(5-Acenaphthyl)-N′-[(1-naphthyl)-methylene]guanidine.CH3SO3H] the “% Inhibition of ^3H-Glu Rel @ 1 μM (*veratridine-induced glutamate release assay)” value [1] was 24* % and the “% Inhibition of ^3H-Glu Rel @ 3 μM (*veratridine-induced glutamate release assay)” value [1] was 71* %.

With Cl.N=C(NCCCc1ccccc1)Nc1ccc2c3c(cccc13)CC2 [Example 43, N-(5-Acenaphthyl)-N′-(3-phenylpropyl)guanidine.HCl] the “% Inhibition of ^3H-Glu Rel @ 1 μM (*veratridine-induced glutamate release assay)” value [1] was 43* % and the “% Inhibition of ^3H-Glu Rel @ 3 μM” value [2] was 60%.

Compound CCC(C)c1ccc(N2CCCN(c3ccc(C(C)CC)cc3)C2=N)cc1 (stereo not shown) (as salt: HBr) [Example 8, N,N′-Bis-(4-sec-butylphenyl)-2-iminopyrimidazolidine.HBr] has a melting point of over 250 °C.

With CC(C)(C)c1ccc(CN(C(=N)N)c2cccc(OC(F)(F)F)c2)cc1.Cl [Example 27, N-(3-Trifluoromethoxyphenyl)-N-(4-tert-butylbenzyl)guanidine.HCl] the pIC50 [3, 6] was 5.92 and the “% Inhibition of ^3H-Glu Rel @ 1 μM” value [2] was 24%.

For CC(C)(C)c1ccc(CN(C(=N)N)c2cccc(I)c2)cc1 (as salt: HCl) [Example 48, N-(3-Iodophenyl)-N-(4-tert-butylbenzyl)guanidine.HCl], the melting point was 271 to 272 °C.

Work on COc1ccc([C@@H]2Sc3ccccc3N(CCN(C)C)C(=O)[C@@H]2OC(C)=O)cc1 [diltiazem, reference compound] yielded a pIC50 ([4]; read-out: IC50, block of ^45Ca uptake, high K+ depolarization-induced 45Ca uptake) of 4.71.

CCC(C)c1ccc(NC(=N)Nc2ccc(C(C)CC)cc2)cc1 (stereo not shown) (as salt: HCl) [Example 4, N,N′-bis(4-sec-Butylphenyl)guanidine.HCl] showed a melting point of 113 to 115 °C.

For CCC(C)c1ccc(N(Cc2ccccc2)C(=N)N)cc1 (stereo not shown) [Example 17, N-(4-sec-Butylphenyl)-N-benzylguanidine], the melting point was 65 to 67 °C.

In the case of CCCCOc1ccc(N(Cc2ccc(C(C)(C)C)cc2)C(=N)N)cc1.Cl [Example 24, N-(4-n-Butoxyphenyl)-N-(4-tert-butylbenzyl)guanidine.HCl], the “% Inhibition of ^3H-Glu Rel @ 1 μM (*veratridine-induced glutamate release assay)” value [1] was 62* % and the pIC50 [3, 6] was 5.74.

With CC(C)(C)c1ccc(CN(C(=N)N)c2cccc(I)c2)cc1 [Example 48, N-(3-Iodophenyl)-N-(4-tert-butylbenzyl)guanidine.HCl] the “% Inhibition of ^3H-Glu Rel @ 1 μM (*veratridine-induced glutamate release assay)” value [1] was 23* % and the pIC50 [3] was 6.40.

In the case of CCC(C)c1ccc(N(C/C=C/c2ccccc2)C(=N)N)cc1.Cl (stereo not drawn) [Example 23, N-(4-sec-Butylphenyl)-N-(trans-cinnamyl)guanidine.HCl], the “% Inhibition of ^3H-Glu Rel @ 3 μM (*veratridine-induced glutamate release assay)” value [1] was 33* %.

With CC(CNC(=N)Nc1ccc2c3c(cccc13)CC2)c1ccccc1.Cl (stereo not shown) [Example 44, N-(5-Acenaphthyl)-N′-(2-methyl-2-phenylethyl)guanidine.HCl] the “% Inhibition of ^3H-Glu Rel @ 1 μM (*veratridine-induced glutamate release assay)” value [1] was 43* % and the “% Inhibition of ^3H-Glu Rel @ 3 μM (*veratridine-induced glutamate release assay)” value [1] was 71* %.

With CCC(C)c1ccc(N(Cc2ccc(C(C)(C)C)cc2)C(=N)N)cc1 (stereo not shown) (as salt: HCl) [Example 1, N-(4-sec-Butylphenyl)-N-(4-tert-butylbenzyl)guanidine.HCl] the melting point was 177 to 178 °C.

For CC(C)(C)c1ccc(CN(C(=N)N)c2ccc(Cl)c3ccccc23)cc1 [Example 49, N-(4-Chloro-1-naphthyl)-N-(4-tert-benzyl)guanidine.HCl], the “% Inhibition of ^3H-Glu Rel @ 1 μM (*veratridine-induced glutamate release assay)” value [1] was 32* % and the pIC50 [3] was 5.66.

With N=C(Nc1ccc2c3c(cccc13)CC2)NC(c1ccccc1)c1ccccc1 [Example 3, N-(5-Acenaphthyl)-N′-benzhydrylguanidine.HCl] the pIC50 [4, 7] was 5.57 and the “% Inhibition of ^3H-Glu Rel @ 3 μM” value [2] was 53%.

In the case of CC(C)(C)c1ccc(NC(=N)Nc2ccc(Cl)c(Cl)c2Cl)cc1.Cl [Example 14, N-(4-tert-Butylphenyl)-N′-(2,3,4-trichlorophenyl)guanidine.HCl], the pIC50 [3, 6] was 5.74 and the “% Inhibition of ^3H-Glu Rel @ 3 μM” value [2] was 63%.

In the case of CC(C)c1ccc(CN(C(=N)N)c2ccc3c4c(cccc24)CC3)cc1 [Example 19, N-(5-Acenaphthyl)-N-(4-isopropylbenzyl)guanidine], the pIC50 [4, 7] was 5.68, the “% Inhibition of ^3H-Glu Rel @ 3 μM (*veratridine-induced glutamate release assay)” value [1] was 81* % and the melting point was 153 to 155 °C.

CCC(C)c1ccc(N(C)C(=N)N(C)c2ccc(C(C)CC)cc2)cc1 (stereo not shown) (as salt: HCl) [Example 6] showed a melting point of 65 to 66 °C.

With CCC(C)c1ccc(N2CCCN(c3ccc(C(C)CC)cc3)C2=N)cc1 (stereo not shown) [Example 8, N,N′-Bis-(4-sec-butylphenyl)-2-iminopyrimidazolidine.HBr] the “Audiogenic Response % Inhib.” value ([5]; 2 mg/kg intraperitoneally) was 41%, the “Audiogenic Response % Inhib.” value ([5]; 4 mg/kg intraperitoneally) was 75% and the pIC50 [3] was 6.70. The “% Inhibition of ^3H-Glu Rel @ 3 μM” value [2] was 50%.

Compound CC(C)(C)c1ccc(CN(C(=N)N)c2ccc(Cl)c3ccccc23)cc1 (as salt: HCl) [Example 49, N-(4-Chloro-1-naphthyl)-N-(4-tert-benzyl)guanidine.HCl] has a melting point of 115 to 117 °C.

In the case of CCC(C)c1ccc(NC(=N)N(C)c2ccc(C(C)CC)cc2)cc1.Cl (stereo not shown) [Example 5, N,N′-bis(4-sec-Butylphenyl)-N-methyl guanidine.HCl], the “% Inhibition of ^3H-Glu Rel @ 1 μM (*veratridine-induced glutamate release assay)” value [1] was 68* %.

In the case of Cl.N=C(Nc1ccc(OCc2ccccc2)cc1)Nc1cccc(OCc2ccccc2)c1 [Example 42, N-(3-Benzyloxyphenyl)-N′-(4-benzyloxyphenyl)guanidine.HCl], the “% Inhibition of ^3H-Glu Rel @ 3 μM (*veratridine-induced glutamate release assay)” value [1] was 60* %, the pIC50 [3, 6] was 6.15 and the “% Inhibition of ^3H-Glu Rel @ 0.3 μM” value ([2]; 0.3 μM compound) was 54%. For the same compound, the “% Inhibition of ^3H-Glu Rel @ 1 μM” value [2] was 90%.

In the case of N=C(Nc1ccc2c3c(cccc13)CC2)NC(c1ccccc1)c1ccccc1 (as salt: HCl) [Example 3, N-(5-Acenaphthyl)-N′-benzhydrylguanidine.HCl], the melting point was 225 to 227 °C.
